In paper PMC4527935 (Nature structural & molecular biology, 2015):

Assays:
[1] = target: T1, yeast AAC carrier 3 (yAAC3), mitochondrial ADP/ATP carrier (Saccharomyces cerevisiae, UniProt P18238); assay: NMR chemical shift titration; assay type: binding
[2] = target: T1, yeast AAC carrier 3 (yAAC3), mitochondrial ADP/ATP carrier; assay: ITC; assay type: binding

T1 sequence (P18238 whole entry): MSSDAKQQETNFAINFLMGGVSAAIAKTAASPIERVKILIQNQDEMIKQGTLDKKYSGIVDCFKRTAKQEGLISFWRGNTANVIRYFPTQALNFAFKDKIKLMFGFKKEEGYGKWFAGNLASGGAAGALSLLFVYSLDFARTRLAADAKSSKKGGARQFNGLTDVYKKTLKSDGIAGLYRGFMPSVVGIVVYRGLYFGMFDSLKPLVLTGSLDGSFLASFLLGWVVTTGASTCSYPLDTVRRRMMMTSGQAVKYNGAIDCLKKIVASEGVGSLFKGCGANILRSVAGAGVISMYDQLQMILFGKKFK

| Kd [1] [µM] | SMILES | Kd [2] [µM] |
| --- | --- | --- |
| ~500 | Nc1ncnc2c1ncn2[C@@H]1O[C@H](COP(=O)(O)OP(=O)(O)O)[C@@H](O)[C@H]1O [ADP] | – |
| – | C=C1[C@@H]2CC[C@H]3[C@]4(C)C[C@H](O[C@@H]5O[C@H](CO)[C@@H](OS(=O)(=O)O)[C@H](OS(=O)(=O)O)[C@H]5OC(=O)CC(C)C)CC(C(=O)O)(C(=O)O)[C@H]4CC[C@]3(C2)[C@H]1O [CATR, carboxyatractyloside] | 14.9 ± 9.6 |
